Assay results reported in patent EP0703239A1, “Aminomethylphosphonic and aminomethylphosphinic acids derivatives and their use in the treatment of degenerative articular diseases” (priority 1994, dated 1996).
pIC50: −log10 of the molar value. Counter-ions that a name gives are not always drawn. Like-named read-outs stand apart in the source and are kept apart here.

Legend:
[1] = tested on: Chondrozyten; assay: Stimulation of cartilage matrix (proteoglycan) synthesis in chondrocyte agarose culture, 35S-sulfate incorporation; type: cell-based, Rinder; settings: Chondrocyte, read-out: Stimulationsfaktor der Proteoglykansynthese
From the text: 1. Wirksamkeit in der Synthese-Stimulierung von Knorpel-Matrix, Prüfung in der Chondrozyten-Kultur
Zellen: Den Fußgelenken frisch geschlachteter Rinder werden der hyaline Knorpel entnommen, mit Pronase (Boehringer Mannheim) und Collagenase (Sigma), die native Matrix enzymatisch abgebaut, und die Chondrozyten in 1 %iger "low melting Agarose" in 24er Multiwell-Schalen in einer Zelldichte von 4 x 10⁶ pro well ausplattiert.
Medium: Komplettes Medium enthält HAM's F12 (Biochrom KG, Berlin) und 10 % foetales Kälberserum (Boehringer Mannheim), die Testsubstanz wird in Medium gelöst, üblicherweise in einer Konzentration von 10⁻⁵ M zugegeben und bei jedem Mediumwechsel erneut zugefügt.
Versuchsdurchführung: Die Behandlung erfolgt vom dritten bis zehnten Tag der Primärkultur, am 9. […] Die dissoziative Extraktion der Proteoglykane aus der Agarose-Schicht wird mit 8M Guanidinium-Hydrochlorid und beigefügten Proteinase-Inhibitoren (Sigma) unter Schütteln bei 4° C über 24 h durchgeführt. Der Überstand wird nach Zentrifugation über eine PD 10 ®Sephadex G 25 Säule in freies und inkorporiertes Sulfat getrennt, dessen Aktivität nach Aliquotierung im β-Szintillationscounter gemessen wird.
Auswertung: Der Parameter für die Matrixproduktion der Chondrozyten ist die Menge synthetisierter Proteoglykane, gemessen als Sulfatinkorporation in cpm. Aus vier Wells pro Gruppe wird der Mittelwert errechnet. Dieser wird durch den Mittelwert der unbehandelten Kontrolle dividiert, und ergibt somit einen Stimulationsfaktor, der bei Stimulation der Matrixsynthese größer 1 ist, bei Hemmung derselben durch Substanzwirkung kleiner 1, und bei unveränderter Matrixsynthese gleich 1 ist.
Als Standard wird Diacerein eingesetzt, das unter dem Markennamen "Artodar" von der Firma Proter bzw. […] Tabelle II

[2] = tested on: Chondrozyten; assay: IL-1-induced chondrocytic chondrolysis in chondrocyte agarose culture, 35S-sulfate incorporation; settings: agarose cell culture with 5 u/ml human rec. IL-1 alpha; factor relative to IL-1 treated control
[3] = tested on: Rattenlebermikrosomen; assay: Inhibition of microsomal lipid peroxidation (malondialdehyde/thiobarbituric acid); type: biochemical, Ratte; settings: rat liver microsomes, FeSO₄ start, 10 min 37°C; read-out: IC50 Mikrosomale Lipidperoxidation
Protocol: 4. Hemmung der Mikrosomalen Lipidperoxidation […]
Alle Schritte werden bei 0°C durchgeführt. Die Leber einer Ratte wird, um alles Hämoglobin zu entfernen, mit 0,9 % NaCl-Lösung gründlich gespült. Die grob zerkleinerte Leber wird dann in 10 mM Tris/HCl pH 7,4; 250 mM Saccharose (10 ml Puffer/g Leber) gepottert. Zunächst wird 5 Minuten bei 600xg zentrifugiert. Der Überstand wird dann 10 min bei 12000xg zentrifugiert und wird mit festem CaCl₂ (117,6 mg/100 ml) auf eine Konzentration von 8 mM eingestellt. Durch Zentrifugieren bei 25000 xg (15 min) wird ein Mikrosomenniederschlag gewonnen. Dieser Niederschlag wird im gleichen Volumen Puffer (10 mM Tris/HCl pH 7,4; 150 mM KCl) rehomogenisiert und erneut 15 min bei 25000 xg zentrifugiert.
Ein Testansatz besteht aus 20 µl Mikrosomen (100 mg/ml), vgl. oben, gelöst in Puffer (250 mM Tris/HCl pH 6,6, 750 mM KCl), 10 µl 50 mM MgCl₂, 10 µl 200 mM Isocitronensäure, 10 µl 4mM NADP (3,028 mg/ml Wasser), 10 µl 25 mM Niacinamid, 10 µl Isocitratdehydrogenase (1:100 verdünnt) und 20 µl Wasser oder Testsubstanz. Gestartet wird die Reaktion mit 10 µl 0,25 mM FeSO₄. Die Inkubation dauert 10 Minuten und erfolgt bei 37°C. Gestoppt wird mit 500 µl eiskalter 20 %iger Trichloressigsäure. Entstandenes Malondialdehyd wird durch Zugabe von 500 µl 0,67 %iger Thiobarbitursäure und 30 Minuten Inkubation bei 90°C in eine pinkfarbene Verbindung überführt, die bei 532 nm gemessen wird. Die Extinktion im Kontrollansatz ohne Prüfpräparat wird auf 0 % Hemmung gesetzt, während das völlige Verschwinden des Signals 100 % Hemmung bedeutet.

[4] = tested on: Matrix Metalloproteasen (MMP); assay: Inhibition of matrix metalloproteases from supernatant of PMA-induced synoviocytes, fluorogenic substrate; type: biochemical, Kaninchen
From the text: 3. Inhibierung von Matrix Metalloproteasen (MMP)
Die erfindungsgemäßen Verbindungen zeigten deutliche inhibitorische Wirkungen auf proteolytische Enzyme, die sogenannten Matrix Metalloproteasen. Dies ist von großer Bedeutung, weil diese dem Fachmann an sich bekannten Enzyme am proteolytischen Abbau der intakten Knorpelmatrix entscheidend beteiligt sind.
Kaninchen Synoviocyten (HIG-82; ATCC, Rockville, Maryland, USA) werden in Nährmedium HAM'S F12 (Sigma, Deisenhofen, Deutschland, Katalog Nr. N-6760) mit 10 % fötalem Rinder Serum (Sigma, Deisenhofen, Deutschland, Katalog Nr. F-2442), zusammen mit Penicillin 100 U/ml sowie Streptomycin 100 µg/ml, kultiviert. Nach konfluentem Zellwachstum wird die MMP Expression in serumfreiem HAM'S F12 durch Zugabe von 0,3 µmol/l Phorbol-12-Myristat-13-Acetat induziert. Nach 20 h Inkubationszeit bei 37°C wird der Überstand abgenommen.
Der Überstand wird mit Trypsin (5 µg/ml) aktiviert. Nach 15 Minuten (min) bei 37°C wird die Aktivierung durch Zugabe von 1 mmol/l Phenylmethylsulfonylfluorid (PMSF) beendet und für weitere 10 min nachinkubiert. Das Gesamtvolumen des Ansatzes beträgt 210 µl.
Messung der MMP Aktivität (Lit.: C.G. Knight et al.; FEBS Lett. 296, 263 (1992)):
20 µl des obengenannten Überstandes werden 1:10 verdünnt, und mit 240 µl Puffer (0,1 Tris/HCl pH 7,5; 0,1 M NaCl; 0,01 M CaCl₂; 0,05 % Brij) gemischt. Die Prüfsubstanz wird in der angegebenen Konzentration (s. Tabelle) zugegeben. Nach einer Inkubationszeit von 15 min wird die Reaktion durch Zugabe von 20 µmol/l Fluoreszenz-Substanz ((7-Methoxycoumarin-4-yl)acetyl-pro-Leu-Gly-Leu-[3-(2',4'-dinitrophenyl)-L-2,3-diaminopropionyl]-Ala-Arg-NH₂; Bachem, Heidelberg, Deutschland, Kat. Nr.: M-1895) gestartet. Die Reaktion wird nach 30 min durch Zugabe von 10 mmol/l EDTA beendet. Das Gesamtvolumen des Ansatzes beträgt 320 µl. Als Meßparameter dienen die Fluoreszenzintensitäten bei λex: 328 nm und […]. Um die mögliche Eigenfluoreszens der Prüfsubstanzen zu berücksichtigen, werden die Fluoreszenzintensitäten von Parallel-Messungen ohne Substrat von den Messwerten mit Substrat abgezogen. Alle Operationen erfolgen bei 20°C. Im Kontrollexperiment ohne Hemmstoff wird die Fluoreszenz entsprechen 0 % Hemmung gesetzt, während völlige Auslöschung der Fluoreszenz 100 % Hemmung bedeutet.

[5] = tested on: IL-1alpha; assay: LPS-stimulated interleukin release from human mononuclear cells, ELISA (IL-1alpha); type: cell-based; settings: 10 µmol/l, 20-22 h, read-out: % Hemmung der Interleukin-Freisetzung
Protocol: (§1) 5. Freisetzung von Interleukinen (insbesondere IL-1β) aus humanen mononuklearen Zellen
(§2) Die erfindungsgemäßen Verbindungen haben eine starke Hemmwirkung auf die Freisetzung von Interleukinen aus Humanzellen. Dies ist von großer pharmakologischer Bedeutung weil Interleukine die unerwünschte Degradation der Knorpelmatrix auslösen können.
(§3) 10 ml Humanblut, stabilisiert mit 1 ml 3,8 %iger Natriumcitrat-Lösung, werden mit 10 ml PM16 (Serva, Heidelberg) verdünnt und mit 15 ml Lymphoprep (Dr. Molter GmbH, Heidelberg) unterschichtet. Die Proben werden 40 Minuten bei 400 xg (1600 rpm Minifuge 2, Heraeus, Osterode) zentrifugiert (Raumtemperatur). Die mononuklearen Zellen sind als weißer Ring an der Grenze Lymphoprep/Plasma sichtbar. Dieser Ring wird mit einer Spritze vorsichtig entnommen, mit dem gleichen Volumen PM16 verdünnt und 10 Minuten bei 400 xg zentrifugiert. Der Niederschlag wird mit ∼ 10 ml RPMI 1640 (+ 300 mg/l L-Glutamin, Gibco, Eggenstein) gewaschen. Nach Resuspendieren der Zellen in ∼ 1 ml RPMI 1640 (+ 300 mg/l L-Glutamin, + 25 mM HEPES, + 100 µg/ml Streptomycin, + 100 µg/ml Penicillin) wird die Zelldichte mit einem Coulter Counter JT (Coulter Diagnostics) bestimmt und auf 5 * 10⁶/ml eingestellt. Die Zellen bestehen typischerweise aus 90 % Lymphozyten und 10 % Monozyten.
(§4) 230 µl mononukleare Zellen werden mit 10 µl Testsubstanz (10 µM in DMSO/Wasser 1/10) und 10 µl Lipopolysaccharide (500 µg gelöst in 1 ml Dimethylsulfoxid (DMSO) und vor Testbeginn 1/10 mit Wasser verdünnt, von Salmonella abortus equi, Sigma, Deisenhofen) 20-22 Stunden bei 37°C; 5 % CO₂ inkubiert. Die Proben werden in einem Eisbad auf 0°C abgekühlt und in einer Sigma-Zentrifuge zentrifugiert (2 Minuten; 2000 rpm). Aliquote des Überstandes werden mit einem kommerziell erhältlichen ELISA (Biermann, Bad Nauheim) bestimmt.

[6] = tested on: TNF-alpha; assay: LPS-stimulated interleukin release from human mononuclear cells, ELISA (TNF-alpha); type: cell-based; settings: 10 µmol/l, 20-22 h, read-out: % Hemmung der Interleukin-Freisetzung
Protocol: as §1, §2, §3, §4

[7] = tested on: IL-1beta; assay: LPS-stimulated interleukin release from human mononuclear cells, ELISA (IL-1beta); type: cell-based; settings: 10 µmol/l, 20-22 h, read-out: % Hemmung der Interleukin-Freisetzung
Protocol: as §1, §2, §3, §4

[8] = agarose cell culture, test substance usually 10⁻⁵ M, mean sulfate incorporation divided by untreated control (>1 = stimulation)

CCCOP(=O)(OCCC)C(NCc1ccc2c(c1)OCO2)c1cc(C(C)(C)C)c(O)c(C(C)(C)C)c1 (stereo not shown) [Beispiel 2, 1-(3,4-Methylendioxybenzylamino)-1-(3,5-di-tert.butyl-4-hydroxy-phenyl)methanphosphonsäure-di-n-propylester-hydrochlorid]
fold induction at 10 µM [1, 8]: 1.2 | Stimulationsfaktor der Proteoglykansynthese [2]: 4,3 | pIC50 [3]: 5.64

CC(C)(C)c1cc(C(Nc2ccc3c(c2)OCO3)[PH](=O)O)cc(C(C)(C)C)c1O (stereo not shown) [Beispiel 3]
Stimulationsfaktor der Proteoglykansynthese [2]: 1,3 | Hemmung der MMP ([4]; 10 µM): 3% | Hemmung der MMP ([4]; 30 µM): 20% | Hemmung der MMP ([4]; 100 µM): 83% | pIC50 [3]: 6.10

CCCCNC(c1cc(C(C)(C)C)c(O)c(C(C)(C)C)c1)P(=O)(OCC)OCC (stereo not shown) [Beispiel 6]
fold induction at 10 µM [1]: 1.2 | Stimulationsfaktor der Proteoglykansynthese [2]: 1,4 | pIC50 [3]: 5.65

COP(=O)(OC)C(NC1CCCCC1)c1cc(C(C)(C)C)c(O)c(C(C)(C)C)c1 (stereo not shown) [Beispiel 7]
inhibition at 10 µM [5]: 21% | pIC50 [3]: 5.62

CCOP(=O)(OCC)C(c1cc(C(C)(C)C)c(O)c(C(C)(C)C)c1)N1CCOCC1 (stereo not shown) [Beispiel 23]
inhibition at 10 µM [5]: 75% | pIC50 [3]: 5.61 | inhibition at 10 µM [6]: 70%

CCCCOP(=O)(OCCCC)C(NCc1ccc2c(c1)OCO2)c1cc(C(C)(C)C)c(O)c(C(C)(C)C)c1 (stereo not shown) [Beispiel 31]
Stimulationsfaktor der Proteoglykansynthese [2]: 1,7 | inhibition at 10 µM [7]: 32% | pIC50 [3]: 5.66

CCCCOP(=O)(OCCCC)C(Nc1ccc(Cl)cc1)c1cc(C(C)(C)C)c(O)c(C(C)(C)C)c1 (stereo not shown) [Beispiel 45]
Stimulationsfaktor der Proteoglykansynthese [2]: 1,2 | inhibition at 10 µM [5]: 22% | pIC50 [3]: 5.21

CCCCOP(=O)(OCCCC)C(Nc1ccc(Cl)c(Cl)c1)c1cc(C(C)(C)C)c(O)c(C(C)(C)C)c1 (stereo not shown) [Beispiel 49]
fold induction at 10 µM [1, 8]: 1.2 | Stimulationsfaktor der Proteoglykansynthese [2]: 1,5 | pIC50 [3]: < 5.00

CCOP(=O)(OCC)C(c1cc(C(C)(C)C)c(O)c(C(C)(C)C)c1)N(C)c1ccccc1 (stereo not shown) [Beispiel 53]
Stimulationsfaktor der Proteoglykansynthese [2]: 1,7 | inhibition at 10 µM [7]: 53% | Hemmung der MMP ([4]; 30 µM): 11% | Hemmung der MMP ([4]; 100 µM): 25% | pIC50 [3]: 5.69

CCOP(C)(=O)C(Nc1ccc2c(c1)OCO2)c1cc(C(C)(C)C)c(O)c(C(C)(C)C)c1 (stereo not shown) [Beispiel 59]
Hemmung der MMP ([4]; 10 µM): 19% | Hemmung der MMP ([4]; 30 µM): 43%

COP(=O)(OC)C(Nc1ccc2c(c1)OCO2)c1cc(C(C)(C)C)c(O)c(C(C)(C)C)c1 (stereo not shown) [Beispiel 60]
Stimulationsfaktor der Proteoglykansynthese [2]: 1,4 | pIC50 [3]: 6.15 | inhibition at 10 µM [6]: 24%

CCOP(=O)(OCC)C(Nc1ccc2c(c1)OCO2)c1cc(C(C)(C)C)c(O)c(C(C)(C)C)c1 (stereo not shown) [Beispiel 61]
fold induction at 10 µM [1]: 2.9 | Stimulationsfaktor der Proteoglykansynthese [2]: 1,3 | inhibition at 10 µM [7]: 24%

CCCOP(=O)(OCCC)C(Nc1ccc2c(c1)OCO2)c1cc(C(C)(C)C)c(O)c(C(C)(C)C)c1 (stereo not shown) [Beispiel 62]
fold induction at 10 µM [1, 8]: 1.2 | Stimulationsfaktor der Proteoglykansynthese [2]: 1,2 | inhibition at 10 µM [7]: 46% | Hemmung der MMP ([4]; 10 µM): 23% | Hemmung der MMP ([4]; 30 µM): 68% | Hemmung der MMP ([4]; 100 µM): 83% | pIC50 [3]: 6.62

CCCCOP(=O)(OCCCC)C(Nc1ccc2c(c1)OCO2)c1cc(C(C)(C)C)c(O)c(C(C)(C)C)c1 (stereo not shown) [Beispiel 63]
Stimulationsfaktor der Proteoglykansynthese [2]: 1,5 | inhibition at 10 µM [7]: 31% | Hemmung der MMP ([4]; 10 µM): 26% | Hemmung der MMP ([4]; 30 µM): 60% | pIC50 [3]: 6.62

CCOP(=O)(OCC)C(Nc1ccc(C=CC(=O)OC)cc1)c1cc(C(C)(C)C)c(O)c(C(C)(C)C)c1 (stereo not shown) [Beispiel 67]
Stimulationsfaktor der Proteoglykansynthese [2]: 1,9 | inhibition at 10 µM [7]: 26% | pIC50 [3]: 5.65

CCOP(=O)(OCC)C(Nc1ccc(NC(c2cc(C(C)(C)C)c(O)c(C(C)(C)C)c2)P(=O)(OCC)OCC)cc1)c1cc(C(C)(C)C)c(O)c(C(C)(C)C)c1 (stereo not shown) [Beispiel 74]
Stimulationsfaktor der Proteoglykansynthese [2]: 3,8 | Hemmung der MMP ([4]; 10 µM): 20% | Hemmung der MMP ([4]; 30 µM): 47% | Hemmung der MMP ([4]; 50 µM): 74% | pIC50 [3]: 5.90

CCOP(=O)(OCC)C(Nc1ccccn1)c1cc(C(C)(C)C)c(O)c(C(C)(C)C)c1 (stereo not shown) [Beispiel 79]
fold induction at 10 µM [1]: 1.6 | Stimulationsfaktor der Proteoglykansynthese [2]: 1,2 | pIC50 [3]: 5.64

CCOP(=O)(OCC)C(Nc1ncccn1)c1cc(C(C)(C)C)c(O)c(C(C)(C)C)c1 (stereo not shown) [Beispiel 80]
Stimulationsfaktor der Proteoglykansynthese [2]: 2,4 | pIC50 [3]: 5.54 | inhibition at 10 µM [6]: 21%
